Test results reported in patent US7109338B2, “1,2-disubstituted 1,4-dihydro-4-oxoquinoline compounds” (priority 1999, dated 2006).
Converted amounts (≈) assume the structure as drawn.

Tests used:
HeLa cells = test: Cytotoxicity (MTT, without virus), HeLa; conditions: HeLa, no virus, incubated for 4 days
[1] = test system: coxsackievirus type B4 (CB4,JVB); test: In vitro anti-picornavirus activity (MTT), CB4; assay type: cell-based; conditions: HeLa cells, MTT method, 37° C.
HeLa-S3 cells = test: Cytotoxicity (MTT, without virus), HeLa-S3; conditions: HeLa-S3, no virus, incubated for 4 days
HRV 2 (HGP) = test: Anti-rhinovirus activity (MTT), HRV2; assay type: cell-based, human rhinovirus; conditions: HeLa (Ohio strain) cells, MTT method, 33° C.
HeLa (Ohio strain)cells = test: Cytotoxicity (MTT, without virus), HeLa(Ohio); conditions: HeLa(Ohio), no virus, incubated for 4 days
[2] = test system: coxsackievirus type A7 (CA7); test: In vitro anti-picornavirus activity (MTT), CA7; assay type: cell-based; conditions: HeLa-S3 cells, MTT method, 37° C.
HRV 89 (41617-Gallo) = test: Anti-rhinovirus activity (MTT), HRV89; assay type: cell-based, human rhinovirus; conditions: HeLa (Ohio strain) cells, MTT method, 33° C.
[3] = test system: human rhinovirus type 1B (HRV 1B, B632); test: Anti-rhinovirus activity (MTT), HRV1B; assay type: cell-based; conditions: HeLa (Ohio strain) cells, MTT method, 33° C.
[4] = test system: Poliovirus type 1 (Polio 1, Sabin); test: microbe, parasite or virus in culture; assay type: cell-based
[5] = test system: echovirus type 11 (Echo 11, Gregory); test: In vitro anti-picornavirus activity (MTT), Echo 11; assay type: cell-based; conditions: HeLa-S3 cells, MTT method, 37° C.

Structure (SMILES) | Cytotoxicity CC50 HeLa (HeLa cells) [µg/mL] | IC50 CB4 [1] [µg/mL] | Cytotoxicity CC50 HeLa-S3 (HeLa-S3 cells) [µg/mL] | IC50 HRV2 (HRV 2 (HGP)) [µg/mL] | Cytotoxicity CC50 HeLa(Ohio) (HeLa (Ohio strain)cells) [µg/mL] | IC50 CA7 [2] [µg/mL] | IC50 HRV89 (HRV 89 (41617-Gallo)) [µg/mL] | IC50 HRV1B [3] [µg/mL] | IC50 Polio 1 [4] [µg/mL] | IC50 Echo 11 [5] [µg/mL]
CCCc1ccc2c(c1)c(=O)c(C)c(-c1ccccc1)n2CC [Compound A30] | 6.0 | 1.8 (≈ 5.89 µM) | 6.5 | 0.48 (≈ 1.57 µM) | 5.8 | 1.2 (≈ 3.93 µM) | 1.0 (≈ 3.27 µM) | 1.6 (≈ 5.24 µM) | 1.0 (≈ 3.27 µM) | 0.42 (≈ 1.38 µM)
CCCOc1ccc2c(c1)c(=O)c(C)c(-c1ccccc1)n2CC [Compound A32] | 9.7 | >3.3 | >10 | 0.55 (≈ 1.71 µM) | >10 | 1.9 (≈ 5.91 µM) | 0.77 (≈ 2.4 µM) | 1.0 (≈ 3.11 µM) | 0.93 (≈ 2.89 µM) | 0.40 (≈ 1.24 µM)
CCn1c(-c2cccc(F)c2)c(C)c(=O)c2cc(C(C)C)ccc21 [Compound A60] | 5.3 | 2.8 (≈ 8.66 µM) | 7.0 | 0.52 (≈ 1.61 µM) | 5.7 | 2.5 (≈ 7.73 µM) | 1.1 (≈ 3.4 µM) | 0.59 (≈ 1.82 µM) | 1.1 (≈ 3.4 µM) | 0.52 (≈ 1.61 µM)
CC(C)c1ccc2c(c1)c(=O)cc(-c1ccc(Cl)c(Cl)c1)n2C [Compound A61] | >4 | >4 | >4 | 0.65 (≈ 1.88 µM) | >4 | >4 | 0.38 (≈ 1.1 µM) | 0.64 (≈ 1.85 µM) | 0.73 (≈ 2.11 µM) | 0.40 (≈ 1.16 µM)
CCn1c(-c2cccc(OC)c2)c(C)c(=O)c2cc(C(C)C)ccc21 [Compound A78] | >8 | 2.6 (≈ 7.75 µM) | >8 | 1.7 (≈ 5.07 µM) | >8 | 7.1 (≈ 21.2 µM) | 2.9 (≈ 8.65 µM) | 5.6 (≈ 16.7 µM) | 1.3 (≈ 3.88 µM) | 1.2 (≈ 3.58 µM)
COc1ccc(-c2c(C)c(=O)c3cc(C(C)C)ccc3n2C)cc1 [Compound A81] | 6.5 | 2.2 (≈ 6.84 µM) | 7.6 | 0.86 (≈ 2.68 µM) | 5.8 | 0.78 (≈ 2.43 µM) | 0.55 (≈ 1.71 µM) | 1.7 (≈ 5.29 µM) | 0.78 (≈ 2.43 µM) | 0.52 (≈ 1.62 µM)
COc1ccc(-c2cc(=O)c3cc(C(C)C)ccc3n2C)cc1C [Compound A97] | 5.1 | 1.4 (≈ 4.36 µM) | >10 | 0.61 (≈ 1.9 µM) | 4.5 | 2.1 (≈ 6.53 µM) | 0.14 (≈ 0.436 µM) | 0.58 (≈ 1.8 µM) | 0.54 (≈ 1.68 µM) | 0.3 (≈ 0.933 µM)
CCn1c(-c2ccc(OC)c(C)c2)cc(=O)c2cc(C(C)C)ccc21 [Compound A98] | >4 | 1.2 (≈ 3.58 µM) | >4 | 0.42 (≈ 1.25 µM) | >4 | 2.9 (≈ 8.65 µM) | 0.36 (≈ 1.07 µM) | 0.78 (≈ 2.33 µM) | 0.66 (≈ 1.97 µM) | 0.26 (≈ 0.775 µM)
CCOc1ccc(-c2cc(=O)c3cc(C(C)C)ccc3n2C)cc1C [Compound A99] | 5.4 | 1.1 (≈ 3.28 µM) | 5.8 | 0.50 (≈ 1.49 µM) | 5.7 | 1.8 (≈ 5.37 µM) | 0.14 (≈ 0.417 µM) | 0.63 (≈ 1.88 µM) | 0.55 (≈ 1.64 µM) | 0.20 (≈ 0.596 µM)
Cc1cc(-c2cc(=O)c3cc(C(C)C)ccc3n2C)ccc1OC(C)C [Compound A100] | >5 | 1.4 (≈ 4.01 µM) | >5 | 0.43 (≈ 1.23 µM) | >5 | 4.5 (≈ 12.9 µM) | 0.20 (≈ 0.572 µM) | 0.85 (≈ 2.43 µM) | 0.57 (≈ 1.63 µM) | 0.24 (≈ 0.687 µM)
CCn1c(-c2ccccc2)c(C)c(=O)c2ccc(C(C)C)cc21 [Compound A122] | >10 | 5.5 (≈ 18 µM) | >10 | 0.43 (≈ 1.41 µM) | >10 | 6.9 (≈ 22.6 µM) | 0.35 (≈ 1.15 µM) | 0.59 (≈ 1.93 µM) | 1.2 (≈ 3.93 µM) | 0.54 (≈ 1.77 µM)
CCn1c(-c2ccccc2)c(C)c(=O)c2cc(OCC(C)C)ccc21 [Compound A130] | >4 | >4 | >4 | 0.65 (≈ 1.94 µM) | >4 | 0.17 (≈ 0.507 µM) | 0.72 (≈ 2.15 µM) | 0.90 (≈ 2.68 µM) | 0.86 (≈ 2.56 µM) | 0.32 (≈ 0.954 µM)
Cc1c(-c2ccccc2)n(C)c2ccc(NCC(C)C)cc2c1=O [Compound A157] | >5 | 4.9 (≈ 15.3 µM) | >5 | 0.56 (≈ 1.75 µM) | >5 | 3.8 (≈ 11.9 µM) | 1.3 (≈ 4.06 µM) | 1.0 (≈ 3.12 µM) | 0.59 (≈ 1.84 µM) | 0.27 (≈ 0.843 µM)
CCn1c(-c2ccccc2)c(C)c(=O)c2cc(NCC(C)C)ccc21.O [Compound A159] | >5 | 3.0 | >5 | 0.48 | >5 | 2.7 | 0.73 | 0.78 | 0.51 | 0.26
CCn1c(-c2ccccc2)c(C)c(=O)c2cc(NCC(C)C)ccc21.Cl [Compound A160] | >5 | 2.9 | >5 | 0.45 | >5 | 2.7 | 0.78 | 0.73 | 0.55 | 0.27
Cc1c(-c2ccccc2)n(-c2ccccc2F)c2ccc(C(C)C)cc2c1=O [Compound A321] | – | – | – | 0.056 (≈ 0.151 µM) | >1 | – | 0.066 (≈ 0.178 µM) | 0.60 (≈ 1.62 µM) | – | –
